# Reference: ChEMBL document CHEMBL1149477, “Monocyclic thiophenes as protein tyrosine phosphatase 1B inhibitors: capturing interactions with Asp48” (Bioorg Med Chem Lett, 2006)
# Activity calls are given as the source filed them. No cut-off for these calls is given here.
# Target: T1, Receptor-type tyrosine-protein phosphatase C (Homo sapiens, UniProt P08575)
# T1 sequence (P08575 whole entry): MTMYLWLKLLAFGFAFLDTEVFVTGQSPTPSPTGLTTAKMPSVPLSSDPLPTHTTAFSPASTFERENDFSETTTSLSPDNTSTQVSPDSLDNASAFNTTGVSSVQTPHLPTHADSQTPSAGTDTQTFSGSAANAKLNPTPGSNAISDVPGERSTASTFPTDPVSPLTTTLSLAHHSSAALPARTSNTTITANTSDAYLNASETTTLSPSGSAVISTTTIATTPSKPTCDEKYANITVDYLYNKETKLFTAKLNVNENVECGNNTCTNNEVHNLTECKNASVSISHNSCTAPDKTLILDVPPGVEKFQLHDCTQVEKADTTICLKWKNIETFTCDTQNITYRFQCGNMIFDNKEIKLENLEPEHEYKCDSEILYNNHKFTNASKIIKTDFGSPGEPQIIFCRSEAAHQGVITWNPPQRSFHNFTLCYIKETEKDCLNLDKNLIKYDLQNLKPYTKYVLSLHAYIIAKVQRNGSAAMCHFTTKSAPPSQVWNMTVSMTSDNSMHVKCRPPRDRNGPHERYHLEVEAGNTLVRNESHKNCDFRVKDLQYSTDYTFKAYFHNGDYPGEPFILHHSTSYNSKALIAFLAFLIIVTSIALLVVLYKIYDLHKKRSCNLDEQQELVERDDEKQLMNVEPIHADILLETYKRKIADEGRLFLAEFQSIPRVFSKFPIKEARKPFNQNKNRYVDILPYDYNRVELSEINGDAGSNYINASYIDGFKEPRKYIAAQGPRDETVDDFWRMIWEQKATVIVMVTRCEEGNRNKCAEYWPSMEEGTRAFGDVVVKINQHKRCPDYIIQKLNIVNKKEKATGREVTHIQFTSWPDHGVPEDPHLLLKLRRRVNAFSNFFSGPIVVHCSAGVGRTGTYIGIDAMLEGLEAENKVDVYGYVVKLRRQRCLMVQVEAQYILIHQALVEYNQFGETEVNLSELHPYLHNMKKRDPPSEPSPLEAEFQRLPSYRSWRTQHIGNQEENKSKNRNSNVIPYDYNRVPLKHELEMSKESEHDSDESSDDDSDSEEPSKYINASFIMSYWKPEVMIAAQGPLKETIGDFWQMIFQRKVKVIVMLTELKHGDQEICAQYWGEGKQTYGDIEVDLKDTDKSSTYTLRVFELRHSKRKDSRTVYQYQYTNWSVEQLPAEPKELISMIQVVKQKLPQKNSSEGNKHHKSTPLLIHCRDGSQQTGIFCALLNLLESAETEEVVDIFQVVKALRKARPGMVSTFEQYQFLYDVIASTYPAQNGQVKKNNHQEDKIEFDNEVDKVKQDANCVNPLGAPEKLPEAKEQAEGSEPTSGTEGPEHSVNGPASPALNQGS
# Test: Inhibition of CD45
row,Ki,Structure (SMILES)
1,64 µM,CN(C)c1ccc(-c2sc(C(=O)O)c(OCC(=O)O)c2Br)cc1
2,26 µM,O=C(O)COc1c(C(=O)O)sc(-c2ccccc2)c1Br
3,33 µM,O=C(O)COc1c(C(=O)O)sc(-c2ccc(NC(=O)CC(=O)O)cc2)c1Br
4,55 µM,O=C(O)COc1c(C(=O)O)sc(-c2ccc(NC(=O)c3cccnc3)cc2)c1Br

# Target: Receptor-type tyrosine-protein phosphatase F (Homo sapiens, UniProt P10586)
# Sequence (P10586 whole entry): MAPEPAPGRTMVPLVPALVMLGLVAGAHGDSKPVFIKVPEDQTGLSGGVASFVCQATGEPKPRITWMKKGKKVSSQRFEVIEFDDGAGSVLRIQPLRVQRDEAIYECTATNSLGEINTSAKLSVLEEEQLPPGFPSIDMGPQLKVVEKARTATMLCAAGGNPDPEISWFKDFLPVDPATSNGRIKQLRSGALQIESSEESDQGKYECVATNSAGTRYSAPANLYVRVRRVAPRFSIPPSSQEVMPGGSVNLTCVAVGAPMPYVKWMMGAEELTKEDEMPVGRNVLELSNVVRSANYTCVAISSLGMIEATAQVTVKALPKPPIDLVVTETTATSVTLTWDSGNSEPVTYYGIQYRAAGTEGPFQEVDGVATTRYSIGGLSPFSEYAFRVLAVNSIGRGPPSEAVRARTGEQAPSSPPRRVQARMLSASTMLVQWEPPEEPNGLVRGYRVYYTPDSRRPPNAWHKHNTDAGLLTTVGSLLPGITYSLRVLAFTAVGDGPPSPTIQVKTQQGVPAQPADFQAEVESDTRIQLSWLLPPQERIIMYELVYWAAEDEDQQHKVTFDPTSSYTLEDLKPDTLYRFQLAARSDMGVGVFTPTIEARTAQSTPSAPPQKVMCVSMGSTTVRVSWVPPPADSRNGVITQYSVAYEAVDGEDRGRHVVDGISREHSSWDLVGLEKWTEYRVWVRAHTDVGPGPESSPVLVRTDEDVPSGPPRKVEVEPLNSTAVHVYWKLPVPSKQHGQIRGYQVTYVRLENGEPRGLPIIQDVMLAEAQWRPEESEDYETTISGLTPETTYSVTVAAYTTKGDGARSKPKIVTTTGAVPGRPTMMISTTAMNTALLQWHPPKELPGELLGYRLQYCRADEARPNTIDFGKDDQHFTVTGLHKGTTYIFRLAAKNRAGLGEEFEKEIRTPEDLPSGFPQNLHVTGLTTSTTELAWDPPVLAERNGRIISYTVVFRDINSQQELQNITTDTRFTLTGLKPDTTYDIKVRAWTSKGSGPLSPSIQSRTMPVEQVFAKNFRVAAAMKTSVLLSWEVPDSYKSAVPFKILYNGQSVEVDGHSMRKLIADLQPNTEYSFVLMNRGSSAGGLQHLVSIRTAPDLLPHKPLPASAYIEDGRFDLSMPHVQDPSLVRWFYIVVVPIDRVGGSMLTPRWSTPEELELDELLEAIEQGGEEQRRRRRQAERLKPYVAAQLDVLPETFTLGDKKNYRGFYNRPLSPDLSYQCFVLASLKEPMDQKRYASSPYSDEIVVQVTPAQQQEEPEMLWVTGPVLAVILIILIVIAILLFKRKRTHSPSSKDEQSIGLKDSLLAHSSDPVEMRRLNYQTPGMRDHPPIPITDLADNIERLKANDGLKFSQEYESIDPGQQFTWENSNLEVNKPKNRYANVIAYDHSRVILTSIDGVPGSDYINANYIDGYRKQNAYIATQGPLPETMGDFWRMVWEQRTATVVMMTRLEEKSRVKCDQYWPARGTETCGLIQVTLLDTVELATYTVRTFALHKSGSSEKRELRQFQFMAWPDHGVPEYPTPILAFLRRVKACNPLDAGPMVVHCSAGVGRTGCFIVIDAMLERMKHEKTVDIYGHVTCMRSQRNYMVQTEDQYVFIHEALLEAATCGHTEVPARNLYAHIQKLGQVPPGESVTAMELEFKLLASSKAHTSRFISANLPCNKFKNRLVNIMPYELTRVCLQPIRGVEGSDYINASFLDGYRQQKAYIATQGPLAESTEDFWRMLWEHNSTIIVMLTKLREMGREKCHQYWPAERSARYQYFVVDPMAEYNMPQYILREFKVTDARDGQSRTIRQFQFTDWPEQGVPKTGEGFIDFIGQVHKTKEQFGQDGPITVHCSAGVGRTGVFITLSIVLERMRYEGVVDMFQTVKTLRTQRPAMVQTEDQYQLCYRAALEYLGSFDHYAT
# Test: Inhibition of LAR
row,Ki,Structure (SMILES)
1,> 1000 µM,CN(C)c1ccc(-c2sc(C(=O)O)c(OCC(=O)O)c2Br)cc1
2,> 1000 µM,O=C(O)COc1c(C(=O)O)sc(-c2ccccc2)c1Br
3,> 1000 µM,O=C(O)COc1c(C(=O)O)sc(-c2ccc(NC(=O)CC(=O)O)cc2)c1Br
4,320 µM,O=C(O)COc1c(C(=O)O)sc(-c2ccc(NC(=O)c3cccnc3)cc2)c1Br

# Target: T2, Tyrosine-protein phosphatase non-receptor type 1 (Homo sapiens) (UniProt P18031)
# T2 sequence (whole entry): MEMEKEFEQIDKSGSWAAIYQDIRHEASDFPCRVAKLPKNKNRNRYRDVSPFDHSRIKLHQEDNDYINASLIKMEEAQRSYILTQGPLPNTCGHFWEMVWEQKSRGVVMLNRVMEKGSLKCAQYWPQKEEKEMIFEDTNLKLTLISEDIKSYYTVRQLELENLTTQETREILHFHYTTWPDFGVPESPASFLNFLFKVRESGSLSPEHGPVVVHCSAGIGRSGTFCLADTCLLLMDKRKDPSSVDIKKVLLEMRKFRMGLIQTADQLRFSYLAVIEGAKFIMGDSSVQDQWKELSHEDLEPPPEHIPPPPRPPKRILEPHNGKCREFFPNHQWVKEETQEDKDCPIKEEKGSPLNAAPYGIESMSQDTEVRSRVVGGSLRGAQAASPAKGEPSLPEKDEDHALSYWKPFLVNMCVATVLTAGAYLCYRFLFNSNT
# Test: (§1) Inhibition of PTP1B
row,Activity,Structure (SMILES)
1,inactive,O=C(O)COc1c(C(=O)O)sc(-c2ccccc2)c1-c1ccccc1

# Target: T3, Tyrosine-protein phosphatase non-receptor type 1 (Homo sapiens, UniProt P18031)
# T3 sequence (P18031 whole entry): T2 sequence (whole entry)
# Test: as §1
row,Structure (SMILES),Ki
1,CS(=O)(=O)Nc1ccc(-c2sc(C(=O)O)c(OCC(=O)O)c2Br)cc1,0.74 µM
2,O=C(O)COc1c(-c2ccccc2)csc1C(=O)O,> 1000 µM
3,CN(c1ccc(-c2sc(C(=O)O)c(OCC(=O)O)c2Br)cc1)S(=O)(=O)c1ccc(C(F)(F)F)cc1,1.2 µM
4,CC1(C)CC(Nc2ccc(-c3sc(C(=O)O)c(OCC(=O)O)c3Br)cc2)CC(C)(C)C1,0.25 µM
5,Nc1ccc(-c2sc(C(=O)O)c(OCC(=O)O)c2Br)cc1,1.6 µM
6,O=C(O)COc1c(C(=O)O)sc(-c2ccc3ccoc3c2)c1Br,5 µM
7,COc1ccc(-c2sc(C(=O)O)c(OCC(=O)O)c2Br)cc1,3 µM
8,O=C(O)COc1c(C(=O)O)sc(Br)c1Br,18 µM
9,O=C(O)COc1c(C(=O)O)sc(-c2ccc(NC(=O)c3ccccc3)cc2)c1Br,0.6 µM
10,CC(=O)Nc1ccc(-c2sc(C(=O)O)c(OCC(=O)O)c2Br)cc1,0.5 µM
11,Cc1csc(C(=O)O)c1OCC(=O)O,> 1000 µM

# Next, values leading:
row,Ki,Structure (SMILES)
1,1.4 µM,O=C(O)COc1c(C(=O)O)sc(-c2ccsc2)c1Br
2,4 µM,O=C(O)COc1c(C(=O)O)sc(-c2cccnc2)c1Br
3,1 µM,COC(=O)Nc1ccc(-c2sc(C(=O)O)c(OCC(=O)O)c2Br)cc1
4,0.36 µM,CC(C)NC(=O)Nc1ccc(-c2sc(C(=O)O)c(OCC(=O)O)c2Br)cc1
5,0.62 µM,O=C(O)COc1c(C(=O)O)sc(-c2ccc(NC(=O)c3ccco3)cc2)c1Br
6,1 µM,O=C(O)COc1c(C(=O)O)sc(-c2cccc(O)c2)c1Br
7,0.57 µM,O=C(O)COc1c(C(=O)O)sc(-c2ccc3cc[nH]c3c2)c1Br
8,3.3 µM,O=C(O)COc1c(C(=O)O)sc(-c2ccc3ccccc3c2)c1Br
9,> 1000 µM,O=C(O)COc1ccsc1C(=O)O
10,2.5 µM,O=C(O)COc1c(C(=O)O)sc(-c2ccc(C(=O)Nc3ccccc3)cc2)c1Br
11,0.2 µM,O=C(O)COc1c(C(=O)O)sc(-c2ccc(NS(=O)(=O)c3ccc(C(F)(F)F)cc3)cc2)c1Br
